The source of these data is patent publication US20230416679A1, “METHODS AND COMPOSITIONS FOR IN-VITRO AUGMENTATION OF MILK PRODUCTION FROM MAMMARY EPITHELIAL CELLS” (Wilk Technologies International Ltd., priority 2021, published 2023).

“Also recorded” adds a separate entry of the source.

Format in all cases: cell-based
The test system of data set [1] is primary culture of bovine mammary epithelial cells. Description: Intracellular triglyceride content in cell lysates (lipid extraction, HPLC-ELSD). As to conditions: 48 hours, cell lysates. From the text:
For all the experiments, primary culture of bovine mammary epithelial cells were used. The cells were isolated from 3 lactating Holstein cows according to an established protocol (Cohen et al., 2015 supra). Study protocols were in compliance with the regulations of the Israeli Ministry of Health, under the supervision of the Department for Control of Animal Products, State of Israel Ministry of Agriculture Rural Development Veterinary Services and Animal Health. Certificate Nu: #80. After isolation, 60,000 cells were plated in a 35-mm plastic dish on glass cover slips for all florescence staining experiments. For production analysis, 150,000 cells were plated in a 60-mm plastic dish for lipids, protein, and lactose extraction. Oxygen consumption assay was performed by using Seahorse system (Agilent, USA); cells were plated in 24-well plate (20,000 cells/well) and incubated with DMEM/F12, with 0.15% (v/v) bovine serum albumin and insulin (1 μg/ml), hydrocortisone (0.5 μg/ml) and prolactin (1 μg/ml) for 48 h to induce lactogenic response. Then cells were treated with three different P. lentiscus extracts: ethyl acetate, hexane and chloroform, according to the protocol that was used before (Azaizeh et al., 2013). The extracts were diluted with DMEM/F12 medium supplemented with Dimethyl Sulfoxide (DMSO) in a final concentration of 0.1% for better dissolution of the extractions. […] The treatment was given in the presence of insulin (1 μg/ml), hydrocortisone (0.5 μg/ml) and prolactin (1 μg/ml). […] Otherwise, cells were fixed for florescence staining or plates taken to seahorse for oxygen consumption rate measurement.
After treatment, total lipids were extracted from harvested cells and from collected medium. The medium or the cells were diluted by 20 times Folch reagent (Chloroform-Methanol 2:1). After overnight incubation with cold extraction at 4° C., the upper phase was removed, and the lower phase was filtered through glass wool. Samples were then evaporated under a nitrogen stream at 65° C., diluted in 100 μl chloroform:methanol (97:3, v/v) and stored at −20° C. until injection for HPLC analysis. […] Quantification was performed against external standard curves and expressed as μg/per 10^6 live cells or as weight % out of the sum of phospholipids (μg) in the sample. Live cell number was determined with a hemocytometer after 5 min of trypan blue staining. […]
Cells were incubated with 360 uM oleic acid (O) with or without 1.2 mM beta hydroxybutyrate (BHBA, H). The concentration of triglyceride was measured in cell lysates.

Data set [2] shares this test system. In words: Triglyceride / fat secreted to the medium by mammary epithelial cells (Nile red staining, HPLC-ELSD). The following applies: 100 uM oleic acid in the presence of BSA; 24 h; Nile red. An excerpt: For all the experiments, primary culture of bovine mammary epithelial cells were used. The cells were isolated from 3 lactating Holstein cows according to an established protocol (Cohen et al., 2015 supra). Study protocols were in compliance with the regulations of the Israeli Ministry of Health, under the supervision of the Department for Control of Animal Products, State of Israel Ministry of Agriculture Rural Development Veterinary Services and Animal Health. Certificate Nu: #80. After isolation, 60,000 cells were plated in a 35-mm plastic dish on glass cover slips for all florescence staining experiments. For production analysis, 150,000 cells were plated in a 60-mm plastic dish for lipids, protein, and lactose extraction. […] After 24 h of incubation, medium was collected for triglyceride and phospholipid quantification, and cells were harvested for cell counting, lipid, lactose or protein extraction. […]
After treatment, total lipids were extracted from harvested cells and from collected medium. […] Quantification was performed against external standard curves and expressed as μg/per 10^6 live cells or as weight % out of the sum of phospholipids (μg) in the sample. Live cell number was determined with a hemocytometer after 5 min of trypan blue staining. […]

Data set [3] has the same test system. Description: Intracellular lipid droplets fluorescence staining (Nile red / DAPI). As to conditions: primary MEC; Nile red / Dapi staining (FIG. 2). From the text:
For all the experiments, primary culture of bovine mammary epithelial cells were used. The cells were isolated from 3 lactating Holstein cows according to an established protocol (Cohen et al., 2015 supra). Study protocols were in compliance with the regulations of the Israeli Ministry of Health, under the supervision of the Department for Control of Animal Products, State of Israel Ministry of Agriculture Rural Development Veterinary Services and Animal Health. Certificate Nu: #80. After isolation, 60,000 cells were plated in a 35-mm plastic dish on glass cover slips for all florescence staining experiments. […] After 24 h of incubation, medium was collected for triglyceride and phospholipid quantification, and cells were harvested for cell counting, lipid, lactose or protein extraction. […] Cover slips were then rinsed four times with PBS and mounted with fluorescence mounting medium (Dako, North America Inc., Carpinteria, CA). Slides were visualized with an Olympus BX40 fluorescence microscope equipped with an Olympus DP73 digital camera using CellSens Entry software (version 1.7, Olympus). Lipid droplet diameter was measured using ImageJ software (version 1.48, NIH, Bethesda, MD). […] The effect of oleic acid on accumulation of fat in primary culture of mammary epithelial cells was determined using Nile red staining (red). […]

In the case of `CC(O)CC(=O)O` (stereo not drawn) [BHBA, β-hydroxybutirate], the “triglyceride content in the cells” value in data set [1] (1.2 mM BHBA added to 360 uM oleic acid) is on record as approximately 90 ug/10^6 cells.

In the case of `CCCCCCCC/C=C\CCCCCCCC(=O)O` [oleic acid], the “fat content (triglyceride) in medium collected from cells compared with control” value in data set [2] is recorded as “higher; also recorded: increases”. Besides, in data set [3], the “oleic acid concentration at which toxic effect is evident” value is given as “over 1 mM”. Moreover, in data set [1] (360 uM oleic acid), the “increase of triglyceride content in the cells” value was found to be 4 fold.
